Source: patent US9907859B2 (priority 2010, dated 2018)
Values joined by “and” are separate entries in the source; they are usually repeats but may differ in a detail not shown here. Equal values may be shown once. Read-outs that look alike come from different tables or passages of the source.

What was measured:
[1] = in vivo; conditions: iv
[2] = tested on: monkeypox; conditions: in vitro, read-out: 50% effective concentration [EC50], inhibition of virus replication; cited from earlier work
[3] = in vivo; conditions: New Zealand White, rabbit, po, 100 mg/kg
[4] = in vivo; conditions: both, cynomolgus monkey; for AUC(0-inf): AUCINF—obs; for bioavailability: cynomolgus, po

**Q.** For `O=C(NN1C(=O)C2C3C=CC(C4CC34)C2C1=O)c1ccc(C(F)(F)F)cc1` (stereo not shown) [ST-246, 4-trifluoromethyl-N-(3,3a,4,4a,5,5a,6,6a-octahydro-1,3-dioxo-4,6-ethenocycloprop[f]isoindol-2(1H)-yl)-benzamide], which AUC(0-t) ([1]; female, CD-1, mouse, 30 mg/kg, AUC0-24 hr) is on record?
**A.** 709 µg·h/mL

**Q.** What about the Cmax ([1]; female, CD-1, mouse, 30 mg/kg, Cmax) of the same compound?
**A.** 127000 ng/mL

**Q.** What about the clearance ([1]; female, CD-1, mouse, 75 mg/kg) of the same compound?
**A.** 1 mL/min/kg

**Q.** What about the half-life ([1]; female, CD-1, mouse, 75 mg/kg) of the same compound?
**A.** 2.8 h

**Q.** And the AUC(0-t) ([1]; female, CD-1, mouse, 75 mg/kg, AUC0-24)?
**A.** 1250 µg·h/mL

**Q.** What about the AUC(0-t) ([1]; female, CD-1, mouse, 75 mg/kg, AUC0-24 hr) of the same compound?
**A.** 1250 µg·h/mL

**Q.** What about the Cmax ([1]; female, CD-1, mouse, 75 mg/kg, Cmax) of the same compound?
**A.** 238000 ng/mL

**Q.** What about the Cmax ([1]; female, CD-1, mouse, 75 mg/kg, mean Cmax) of the same compound?
**A.** 238000 ng/mL

**Q.** What about the Cmax ([1]; female, mouse, 30 mg/kg, Cmax) of the same compound?
**A.** 120000 ng/mL

**Q.** And the AUC(0-t) ([1]; male, BALB/c, mouse, 2.3 mg/kg, AUC0-24)?
**A.** 73.3 µg·h/mL

**Q.** And the Cmax ([1]; male, BALB/c, mouse, 2.3 mg/kg, Cmax)?
**A.** 20000 ng/mL

**Q.** What about the AUC(0-t) ([1]; male, BALB/c, mouse, 7.6 mg/kg, AUC0-24) of the same compound?
**A.** 170 µg·h/mL

**Q.** And the Cmax ([1]; male, BALB/c, mouse, 7.6 mg/kg, Cmax)?
**A.** 53800 ng/mL

**Q.** What about the AUC(0-t) ([1]; male, BALB/c, mouse, 34.3 mg/kg, AUC0-24) of the same compound?
**A.** 798 µg·h/mL

**Q.** And the Cmax ([1]; male, BALB/c, mouse, 34.3 mg/kg, Cmax)?
**A.** 191000 ng/mL

**Q.** And the EC50 [2]?
**A.** ≤ 70 nM

**Q.** What about the AUC(0-t) ([3]; both) of the same compound?
**A.** 19.8 µg·h/mL

**Q.** What about the CL/F ([3]; both) of the same compound?
**A.** 120 mL/min/kg

**Q.** And the Cmax ([3]; both)?
**A.** 2860 ng/mL

**Q.** What about the half-life ([3]; both) of the same compound?
**A.** 3.7 h

**Q.** What about the AUC(0-t) ([3]; female) of the same compound?
**A.** 8.18 µg·h/mL

**Q.** What about the Cmax ([3]; female) of the same compound?
**A.** 1230 ng/mL

**Q.** What about the half-life ([3]; female) of the same compound?
**A.** 1.3 h

**Q.** And the AUC(0-t) ([3]; male)?
**A.** 26.4 µg·h/mL

**Q.** And the Cmax ([3]; male)?
**A.** 4480 ng/mL

**Q.** And the half-life ([3]; male)?
**A.** 6 h

**Q.** And the “Solubility of ST-246” value (4 ° C.)?
**A.** 5.47 and 6.05

**Q.** And the “Solubility of ST-246” value (25 ° C.)?
**A.** 9.21 and 10.59

**Q.** What about the “Solubility of ST-246” value (40 ° C.) of the same compound?
**A.** 12.99 and 12.23

**Q.** And the “Solubility of ST-246” value (60 ° C.)?
**A.** 17.41 and 16.21

**Q.** What about the AUC(0-t) ([4]; iv, 1 mg/kg) of the same compound?
**A.** 1.88 ± 0.455 µg·h/mL

**Q.** And the AUC(0-inf) ([4]; iv, 1 mg/kg)?
**A.** 1.94 ± 0.459 µg·h/mL

**Q.** What about the clearance ([4]; iv, 1 mg/kg, CL) of the same compound?
**A.** 8.95 mL/min/kg

**Q.** What about the Cmax ([4]; iv, 1 mg/kg) of the same compound?
**A.** 384 ± 112 ng/mL

**Q.** And the half-life ([4]; iv, 1 mg/kg, T1/2)?
**A.** 6.6 ± 6 h

**Q.** What about the Tmax ([4]; iv, 1 mg/kg) of the same compound?
**A.** 4 h

**Q.** What about the AUC(0-t) ([4]; iv, 3 mg/kg) of the same compound?
**A.** 5.65 ± 0.784 µg·h/mL

**Q.** And the AUC(0-inf) ([4]; iv, 3 mg/kg)?
**A.** 5.83 ± 0.87 µg·h/mL

**Q.** What about the clearance ([4]; iv, 3 mg/kg, CL) of the same compound?
**A.** 8.72 mL/min/kg

**Q.** What about the Cmax ([4]; iv, 3 mg/kg) of the same compound?
**A.** 1050 ± 185 ng/mL

**Q.** What about the half-life ([4]; iv, 3 mg/kg, T1/2) of the same compound?
**A.** 8.5 ± 3.2 h

**Q.** What about the Tmax ([4]; iv, 3 mg/kg) of the same compound?
**A.** 4 h

**Q.** What about the AUC(0-t) ([4]; iv, 10 mg/kg) of the same compound?
**A.** 21.1 ± 3.45 µg·h/mL

**Q.** What about the AUC(0-inf) ([4]; iv, 10 mg/kg) of the same compound?
**A.** 21.3 ± 3.4 µg·h/mL

**Q.** What about the clearance ([4]; iv, 10 mg/kg, CL) of the same compound?
**A.** 7.97 mL/min/kg

**Q.** What about the Cmax ([4]; iv, 10 mg/kg) of the same compound?
**A.** 4400 ± 935 ng/mL

**Q.** And the half-life ([4]; iv, 10 mg/kg, T1/2)?
**A.** 8.6 ± 1.3 h

**Q.** And the Tmax ([4]; iv, 10 mg/kg)?
**A.** 4 h

**Q.** And the AUC(0-inf) ([4]; iv, 15 mg/kg)?
**A.** 32.5 ± 5.7 µg·h/mL

**Q.** What about the clearance ([4]; iv, 15 mg/kg, CL) of the same compound?
**A.** 5.85 mL/min/kg

**Q.** And the Cmax ([4]; iv, 15 mg/kg)?
**A.** 7360 ± 1470 ng/mL

**Q.** And the half-life ([4]; iv, 15 mg/kg, T1/2)?
**A.** 9.1 ± 2.6 h

**Q.** And the Tmax ([4]; iv, 15 mg/kg)?
**A.** 4 h

**Q.** What about the AUC(0-inf) ([4]; iv, 20 mg/kg) of the same compound?
**A.** 59.6 ± 10.1 µg·h/mL

**Q.** What about the clearance ([4]; iv, 20 mg/kg, CL) of the same compound?
**A.** 5.88 mL/min/kg

**Q.** And the Cmax ([4]; iv, 20 mg/kg)?
**A.** 11800 ± 2000 ng/mL

**Q.** And the half-life ([4]; iv, 20 mg/kg, T1/2)?
**A.** 8.7 ± 2.5 h

**Q.** What about the Tmax ([4]; iv, 20 mg/kg) of the same compound?
**A.** 4 h

**Q.** And the AUC(0-inf) ([4]; iv, 30 mg/kg)?
**A.** 100 ± 18 µg·h/mL

**Q.** What about the clearance ([4]; iv, 30 mg/kg, CL) of the same compound?
**A.** 5.12 mL/min/kg

**Q.** And the Cmax ([4]; iv, 30 mg/kg)?
**A.** 20100 ± 4200 ng/mL

**Q.** And the half-life ([4]; iv, 30 mg/kg, T1/2)?
**A.** 7.8 ± 0.7 h

**Q.** And the Tmax ([4]; iv, 30 mg/kg)?
**A.** 4 h

**Q.** What about the clearance ([4]; iv, clearance) of the same compound?
**A.** ~8.33 mL/min/kg

**Q.** What about the half-life ([4]; iv, elimination half-lives) of the same compound?
**A.** 6.6 to 9.1 h

**Q.** What about the half-life ([4]; iv, terminal elimination half-life) of the same compound?
**A.** 6.6 to 8.6 h

**Q.** And the half-life ([4]; terminal elimination half-life)?
**A.** 8.9 h

**Q.** And the bioavailability ([4]; 3 mg/kg)?
**A.** 77%

**Q.** What about the bioavailability ([4]; 20 mg/kg) of the same compound?
**A.** 31%

**Q.** And the bioavailability ([4]; 30 mg/kg)?
**A.** 31%
